Data reported in patent EP1092438B1, “Pharmaceutical compositions containing growth-hormone inhibitors or their biologically active fragments for the treatment of uterine myomas” (De Leo, Vincenzo, priority 1999, dated 2006).

Assay: Routine blood parameters before and after treatment
Format: in vivo
Settings: person
Excerpt: TABLE 1 Example 1 (patient)

CC(C)[C@@H]1NC(=O)[C@H](CCCCN)NC(=O)[C@@H](Cc2c[nH]c3ccccc23)NC(=O)[C@H](Cc2ccc(O)cc2)NC(=O)[C@@H](NC(=O)[C@H](N)Cc2ccc3ccccc3c2)CSSC[C@@H](C(=O)N[C@H](C(N)=O)[C@@H](C)O)NC1=O [Lanreotide]
routine blood parameters: remained unvaried
